Read-outs that look alike come from different tables or passages of the source. One block for each compound: values may come before it.
Biological target: T1, BRM (Homo sapiens, UniProt P51531)
T1 construct: In-Cell Western Screen of BRM Degradation in SW1573 Cells; endogenous in cells; host or cells: SW1573
Assay: In-cell Western screen of BRM degradation in SW1573 cells (Dmax and DC50)
Type: cell-based
Procedure, shortened: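 After adhering overnight, cells received compound for 18-20 hours. They were then washed in cold DPBS, fixed with 4% PFA for 20 min and permeabilized for 30 min. Blocking and fluorescent secondary staining followed before imaging.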

[1] = BRM degradation, SW1573 cells, read-out: DC50
[2] = BRM degradation, SW1573 cells, tested at the top concentration of between 0.3 and 10 μM, read-out: Dmax (%) (% degraded)
[3] = BRM degradation, SW1573 cells, read-out: Dmax (% degraded)

T1 sequence (P51531 whole entry): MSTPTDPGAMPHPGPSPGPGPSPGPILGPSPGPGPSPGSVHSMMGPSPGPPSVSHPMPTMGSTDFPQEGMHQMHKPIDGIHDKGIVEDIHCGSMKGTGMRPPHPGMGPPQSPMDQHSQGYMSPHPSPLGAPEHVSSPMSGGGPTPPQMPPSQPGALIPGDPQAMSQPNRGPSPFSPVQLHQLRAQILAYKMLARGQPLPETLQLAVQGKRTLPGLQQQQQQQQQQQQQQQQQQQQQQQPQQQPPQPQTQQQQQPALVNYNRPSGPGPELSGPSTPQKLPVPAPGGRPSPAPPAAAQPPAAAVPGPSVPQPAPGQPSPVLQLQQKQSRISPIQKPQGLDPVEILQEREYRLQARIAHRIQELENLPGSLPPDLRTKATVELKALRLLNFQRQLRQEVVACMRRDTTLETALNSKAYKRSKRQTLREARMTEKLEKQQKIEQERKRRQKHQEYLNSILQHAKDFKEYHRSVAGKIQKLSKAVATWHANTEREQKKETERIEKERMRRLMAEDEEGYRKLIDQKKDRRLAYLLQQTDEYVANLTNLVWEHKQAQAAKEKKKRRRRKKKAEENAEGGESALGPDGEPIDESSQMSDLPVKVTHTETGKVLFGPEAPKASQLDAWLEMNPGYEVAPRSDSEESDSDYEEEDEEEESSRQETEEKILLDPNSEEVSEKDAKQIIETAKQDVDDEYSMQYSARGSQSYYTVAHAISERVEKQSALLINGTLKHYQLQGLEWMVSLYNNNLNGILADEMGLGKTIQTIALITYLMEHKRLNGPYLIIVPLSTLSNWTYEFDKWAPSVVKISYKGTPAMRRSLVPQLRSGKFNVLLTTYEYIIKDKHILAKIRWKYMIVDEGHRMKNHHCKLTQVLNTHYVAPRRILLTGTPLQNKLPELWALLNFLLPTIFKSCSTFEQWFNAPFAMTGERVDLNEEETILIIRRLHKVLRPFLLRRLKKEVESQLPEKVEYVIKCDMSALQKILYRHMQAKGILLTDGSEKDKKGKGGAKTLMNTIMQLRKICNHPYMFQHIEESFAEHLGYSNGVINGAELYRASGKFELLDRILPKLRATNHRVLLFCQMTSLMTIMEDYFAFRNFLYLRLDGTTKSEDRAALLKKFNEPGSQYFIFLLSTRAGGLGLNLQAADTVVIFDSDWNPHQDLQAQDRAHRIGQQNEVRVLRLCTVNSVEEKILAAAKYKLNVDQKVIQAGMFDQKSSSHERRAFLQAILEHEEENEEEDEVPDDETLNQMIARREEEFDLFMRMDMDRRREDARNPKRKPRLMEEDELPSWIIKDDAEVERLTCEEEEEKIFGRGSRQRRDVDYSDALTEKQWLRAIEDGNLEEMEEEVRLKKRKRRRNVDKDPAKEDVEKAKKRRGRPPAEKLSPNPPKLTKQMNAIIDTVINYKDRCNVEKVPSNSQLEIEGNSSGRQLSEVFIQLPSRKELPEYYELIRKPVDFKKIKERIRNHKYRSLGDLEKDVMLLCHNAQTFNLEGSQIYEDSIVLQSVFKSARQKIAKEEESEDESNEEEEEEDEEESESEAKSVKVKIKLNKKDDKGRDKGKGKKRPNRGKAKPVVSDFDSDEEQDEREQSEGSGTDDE

SMILES: CC(C)[C@@H](C(=O)N1C[C@H](O)C[C@H]1C(=O)N[C@@H](C)c1ccc(C(F)(F)F)cc1)c1cc(OCCN2CCC(O[C@H]3C[C@H](Oc4cc(N5C6CCC5CN(c5cc(-c7ccccc7O)nnc5N)C6)ccn4)C3)CC2)no1 [compound 248, (2S,4R)-1-((2R)-2-(3-(2-(4-((1r,3R)-3-((4-(3-(3-amino-6-(2-hydroxyphenyl)pyridazin-4-yl)-3,8-diazabicyclo[3.2.1]octan-8-yl)pyridin-2-yl)oxy)cyclobutoxy)piperidin-1-yl)ethoxy)isoxazol-5-yl)-3-methylbutanoyl)-4-hydroxy-N-((S)-1-(4-(trifluoromethyl)phenyl)ethyl) pyrrolidine-2-carboxamide]
DC50 [1]: > 30 nM

SMILES: Cc1ncsc1-c1ccc([C@H](C)NC(=O)[C@@H]2C[C@@H](O)CN2C(=O)[C@H](c2onc(OCCN3CCC(O[C@H]4C[C@H](Oc5cc(N6C7CCC6CN(c6cc(-c8ccccc8O)nnc6N)C7)ccn5)C4)CC3)c2F)C(C)C)cn1 [compound 269, (2S,4R)-1-((2S)-2-(3-(2-(4-((1r,3S)-3-((4-(3-(3-amino-6-(2-hydroxyphenyl)pyridazin-4-yl)-3,8-diazabicyclo[3.2.1]octan-8-yl)pyridin-2-yl)oxy)cyclobutoxy)piperidin-1-yl)ethoxy)-4-fluoroisoxazol-5-yl)-3-methylbutanoyl)-4-hydroxy-N-((S)-1-(6-(4-methylthiazol-5-yl)pyridin-3-yl)ethyl)pyrrolidine-2-carboxamide]
DC50 [1]: > 30 nM

SMILES: Cc1cnn(C)c1-c1ccc([C@H](C)NC(=O)[C@@H]2C[C@@H](O)CN2C(=O)C(c2cc(OCCN3CCN(CCOc4cc(N5C6CCC5CN(c5cc(-c7ccccc7O)nnc5N)C6)ccn4)CC3)no2)C(C)C)cc1 (stereo in doubt) [compound 194, (2S,4R)-1-((2R)-2-(3-(2-(4-(2-((4-(3-(3-amino-6-(2-hydroxyphenyl)pyridazin-4-yl)-3,8-diazabicyclo[3.2.1]octan-8-yl)pyridin-2-yl)oxy)ethyl)piperazin-1-yl)ethoxy)isoxazol-5-yl)-3-methylbutanoyl)-N-((S)-1-(4-(1,4-dimethyl-1H-pyrazol-5-yl)phenyl)ethyl)-4-hydroxypyrrolidine-2-carboxamide]
DC50 [1]: < 2.5 nM | Dmax (%) (% degraded) (BRM degradation, SW1573 cells, tested at the top concentration of between 0.3 and 10 μM): A (A > 75)

SMILES: Cc1ncsc1-c1ccc([C@H](C)NC(=O)[C@@H]2C[C@@H](O)CN2C(=O)[C@@H](c2cc(N3CCC(CN4CCC(O[C@H]5C[C@H](Oc6cc(N7C8CCC7CN(c7cc(-c9ccccc9)nnc7N)C8)ccn6)C5)CC4)CC3)no2)C(C)C)cc1 [compound 605, (2S,4R)-1-((2R)-2-(3-(4-((4-((1r,3r)-3-((4-(3-(3-amino-6-phenylpyridazin-4-yl)-3,8-diazabicyclo[3.2.1]octan-8-yl)pyridin-2-yl)oxy)cyclobutoxy)piperidin-1-yl)methyl)piperidin-1-yl)isoxazol-5-yl)-3-methylbutanoyl)-4-hydroxy-N-((S)-1-(4-(4-methylthiazol-5-yl)phenyl)ethyl)pyrrolidine-2-carboxamide]
DC50 (BRM degradation, SW1573 cells, Table 2D): > 30 nM

SMILES: COc1nc(-c2scnc2C)ccc1[C@H](C)NC(=O)[C@@H]1C[C@@H](O)CN1C(=O)[C@@H](c1cc(OCCN2CCC(O[C@H]3C[C@H](Oc4cc(N5C6CCC5CN(c5cc(-c7ccccc7O)nnc5N)C6)ccn4)C3)CC2)no1)C(C)C [compound 279, (2S,4R)-1-((2R)-2-(3-(2-(4-((1r,3R)-3-((4-(3-(3-amino-6-(2-hydroxyphenyl)pyridazin-4-yl)-3,8-diazabicyclo[3.2.1]octan-8-yl)pyridin-2-yl)oxy)cyclobutoxy)piperidin-1-yl)ethoxy)isoxazol-5-yl)-3-methylbutanoyl)-4-hydroxy-N-((S)-1-(2-methoxy-6-(4-methylthiazol-5-yl)pyridin-3-yl)ethyl)pyrrolidine-2-carboxamide]
DC50 [1]: < 2.5 nM | Dmax [2]: > 75%

DC50 [1]: 10 to 30 nM | Dmax (BRM degradation, SW1573 cells, when tested at the top concentration of between 0.3 and 10 μM, read-out: Dmax (%) (% degraded)): > 75%
SMILES: Cc1ncsc1-c1ccc(CNC(=O)[C@@H]2C[C@@H](O)CN2C(=O)[C@@H](c2cc(CCCOCCOCCOCCOCCn3cc(-c4cc(-c5ccccc5O)nnc4N)cn3)no2)C(C)C)cc1 [compound 26, (2S,4R)-1-[(2R)-2-[3-(1-[4-[3-amino-6-(2-hydroxyphenyl)pyridazin-4-yl]-1H-pyrazol-1-yl]-3,6,9,12-tetraoxapentadecan-15-yl)-1,2-oxazol-5-yl]-3-methylbutanoyl]-4-hydroxy-N-[[4-(4-methyl-1,3-thiazol-5-yl)phenyl]methyl]pyrrolidine-2-carboxamide]

SMILES: Cc1ncsc1-c1ccc([C@H](C)NC(=O)[C@@H]2C[C@@H](O)CN2C(=O)[C@@H](c2cc(OCCN3CC[C@@H](O[C@H]4C[C@H](Oc5cc(N6C7CCC6CN(c6cc(-c8ccccc8O)nnc6N)C7)ccn5)C4)C[C@H]3C)no2)C(C)C)cc1 (single isomer, unassigned) [compound 634]
DC50 [1]: < 2.5 nM | Dmax [3]: > 75%

SMILES: Cc1ncsc1-c1ccc([C@H](C)NC(=O)[C@@H]2C[C@@H](O)CN2C(=O)C(c2cc(OCCN3CCN(CCO[C@H]4C[C@H](OCCN5CCOC6(CCN(c7cc(-c8ccccc8O)nnc7N)CC6)C5)C4)CC3)no2)C(C)C)cc1 (stereo partly drawn) [compound 192, (2S,4R)-1-(2-(3-(2-(4-(2-((1r,3r)-3-(2-(9-(3-amino-6-(2-hydroxyphenyl)pyridazin-4-yl)-1-oxa-4,9-diazaspiro[5.5]undecan-4-yl)ethoxy)cyclobutoxy)ethyl)piperazin-1-yl)ethoxy)isoxazol-5-yl)-3-methylbutanoyl)-4-hydroxy-N-((S)-1-(4-(4-methylthiazol-5-yl)phenyl)ethyl)pyrrolidine-2-carboxamide]
DC50 [1]: < 2.5 nM | Dmax [2]: > 75%

SMILES: Cc1ncsc1-c1ccc([C@@H](NC(=O)[C@@H]2C[C@@H](O)CN2C(=O)[C@@H](c2cc(OCCN3CCN(CCOc4cc(N5C6CCC5CN(c5cc(-c7ccccc7O)nnc5N)C6)ccn4)CC3)no2)C(C)C)C(=O)N(C)C2CCC2)cc1 [compound 246, (2S,4R)-1-((2R)-2-(3-(2-(4-(2-((4-(3-(3-amino-6-(2-hydroxyphenyl)pyridazin-4-yl)-3,8-diazabicyclo[3.2.1]octan-8-yl)pyridin-2-yl)oxy)ethyl)piperazin-1-yl)ethoxy)isoxazol-5-yl)-3-methylbutanoyl)-N-((R)-2-(cyclobutyl(methyl)amino)-1-(4-(4-methylthiazol-5-yl)phenyl)-2-oxoethyl)-4-hydroxypyrrolidine-2-carboxamide]
DC50 [1]: < 2.5 nM | Dmax [2]: > 75%

SMILES: Cc1ncsc1-c1ccc([C@H](C)NC(=O)[C@@H]2C[C@@H](O)CN2C(=O)[C@@H](c2cc(N3CCC(N4CCC(O[C@H]5C[C@H](Oc6cc(N7C8CCC7CN(c7cc(-c9ccccc9O)nnc7N)C8)ccn6)C5)CC4)CC3)no2)C(C)C)cc1 [compound 685, (2S,4R)-1-((2R)-2-(3-(4-((1r,3R)-3-((4-(3-(3-amino-6-(2-hydroxyphenyl)pyridazin-4-yl)-3,8-diazabicyclo[3.2.1]octan-8-yl)pyridin-2-yl)oxy)cyclobutoxy)-[1,4'-bipiperidin]-1'-yl)isoxazol-5-yl)-3-methylbutanoyl)-4-hydroxy-N-((S)-1-(4-(4-methylthiazol-5-yl)phenyl)ethyl)pyrrolidine-2-carboxamide]
DC50 [1]: < 2.5 nM | Dmax [3]: > 75%

SMILES: Cc1ncsc1-c1ccc([C@H](C)NC(=O)[C@@H]2C[C@@H](O)CN2C(=O)[C@H](c2cc(N3CCC(CN4CCC(O[C@H]5C[C@H](Oc6cc(N7C8CCC7CN(c7cc(-c9ccccc9O)nnc7N)C8)ccn6)C5)CC4)CC3)no2)C(C)C)c(O)c1 [compound 696, (2S,4R)-1-((2S)-2-(3-(4-((4-((1r,3r)-3-((4-(3-(3-amino-6-(2-hydroxyphenyl)pyridazin-4-yl)-3,8-diazabicyclo[3.2.1]octan-8-yl)pyridin-2-yl)oxy)cyclobutoxy)piperidin-1-yl)methyl)piperidin-1-yl)isoxazol-5-y1)-3-methylbutanoyl)-4-hydroxy-N-((S)-1-(2-hydroxy-4-(4-methylthiazol-5-yl)phenyl)ethyl)pyrrolidine-2-carboxamide]
DC50 [1]: > 30 nM

SMILES: Cc1ncsc1-c1ccc([C@H](C)NC(=O)[C@@H]2C[C@@H](O)CN2C(=O)[C@@H](c2cc(OC3CN(CCN4CCC(O[C@H]5C[C@H](Oc6cc(N7C8CCC7CN(c7cc(-c9ccccc9O)nnc7N)C8)ccn6)C5)CC4)C3)no2)C(C)C)cc1 [compound 371, (2S,4R)-1-((2R)-2-(3-((1-(2-(4-((1r,3r)-3-((4-(3-(3-amino-6-(2-hydroxyphenyl)pyridazin-4-yl)-3,8-diazabicyclo[3.2.1]octan-8-yl)pyridin-2-yl)oxy)cyclobutoxy)piperidin-1-yl)ethyl)azetidin-3-yl)oxy)isoxazol-5-yl)-3-methylbutanoyl)-4-hydroxy-N-((S)-1-(4-(4-methylthiazol-5-yl)phenyl)ethyl)pyrrolidine-2-carboxamide]
Dmax (SW1573, % degraded, when tested at the top concentration of between 0.3 and 10 μM, read-out: BRM Dmax (%)): > 75% | DC50 (target protein degradation, read-out: BRM DC50): < 2.5 nM

DC50 (BRM degradation, SW1573 cells, Table 2D, read-out: *DC50): > 30 nM
SMILES: Cc1ncsc1-c1ccc([C@H](C)NC(=O)[C@@H]2C[C@@H](O)CN2C(=O)[C@H](c2cc(OCC[C@H]3CCN(C[C@H]4C[C@H](Oc5cc(N6C7CCC6CN(c6cc(-c8ccccc8O)nnc6N)C7)ccn5)C4)C[C@H]3C)no2)C(C)C)cc1 (racemic) [compound 565, (2S,4R)-1-((2S)-2-(3-(2-((3S,4R)-1-(((1r,3S)-3-((4-(3-(3-amino-6-(2-hydroxyphenyl)pyridazin-4-yl)-3,8-diazabicyclo[3.2.1]octan-8-yl)pyridin-2-yl)oxy)cyclobutyl)methyl)-3-methylpiperidin-4-yl)ethoxy)isoxazol-5-yl)-3-methylbutanoyl)-4-hydroxy-N-((S)-1-(4-(4-methylthiazol-5-yl)phenyl)ethyl) pyrrolidine-2-carboxamide]

Reference: patent US12539292B2, “BRM targeting compounds and associated methods of use” (Arvinas Operations, Inc., priority 2018, dated 2026)
